# Key:
# Test in all cases: MIC determination
# EA (URMC -3) = type: cell-based; conditions: CAMH broth, 20 μM Apo-Transferrin, 37° C., 18 hours
# Procedure: (§1) Sterile technique was used throughout these experiments. Suspensions of organisms were removed from storage (−80° C.) and partially thawed. Partially thawed organisms (1 μL) were inoculated into 3 mL sterile LB Broth in a sterile culture tube and capped, then cultured at 37° C. with shaking for 4-5 hours until the optical density at 600 nm (OD600) was greater than 0.1 on a single beam spectrophotometer.
# (§2) The concentration of organisms was adjusted to 0.08-0.1 OD600 (0.5 McFarland units) by dilution with sterile cation-adjusted Meuller-Hinton (CAMH) broth. The suspensions were used within 30 minutes of preparation.
# (§3) A stock solution was made of each test compound by measuring 6.4 mg of the compound on an analytical balance and dissolving it in DMSO (1 mL) to get a transparent solution. The solutions were stored at −20° C. and thawed prior to use.
# (§4) Sterile CAMH broth (200 μL) containing 20 μM Apo-Transferrin was pipetted into the first row of 8 columns of a sterile, round-bottomed, transparent, 96-well microplate using an 8-channel pipette equipped with sterile tips. One hundred μL was pipetted into the wells of the remaining 11 rows.
# To each well of the first row was pipetted 2.0 μL of the 6.4 mg/mL stock test compound stock solution to give 1:100 dilutions and a final concentration of 64 μg/mL and mixed.
# (§5) With an 8-channel pipette equipped with sterile tips, 100 μL of the first row solution was transferred to the second row and mixed. The process was repeated for the second to third rows and continued through row 11. One hundred μL from row 11 was removed and discarded so that all 12 rows contained 100 μL. Row 12 contained no compound and rows 1-11 contained 64, 32, 16, 8, 4, 2, 1, 0.5, 0.25, 0.125, […] of a given compound.
# (§6) Inoculant suspensions (0.5 μL) were added to the 12 wells of each column. The plates were then covered and incubated at 37° C. overnight for 18 hours.
# (§7) For each organism the MIC was determined by identifying the transparent well with the lowest test compound concentration.
# CF (RR -1) = type: cell-based, Citrobacter freundii; conditions: CAMH broth, 20 μM Apo-Transferrin, 37° C., 18 hours
# Procedure: as §1, §2, §3, §4, §5, §6, §7
# ENC (ATCC NDM-1) = type: cell-based, Enterobacter cloacae; conditions: CAMH broth, 20 μM Apo-Transferrin, 37° C., 18 hours
# Procedure: as §1, §2, §3, §4, §5, §6, §7
# A. baumannii = type: cell-based, Acinetobacter baumannii
# Procedure: as §1, §2, §3, §4, §5, §6, §7
# [1] = tested on: A. baumannii (JMI OXA-58); type: cell-based, Acinetobacter baumannii; conditions: Acinetobacter baumannii, class D carbapenemase producer, CAMH broth, 20 μM Apo-Transferrin, 37° C., 18 hours, read-out: Minimum Inhibitory Concentrations, A. baumannii (JMI OXA-58)
# Procedure: as §1, §2, §3, §4, §5, §6, §7
# PM (RR -1) = type: cell-based, Proteus mirabilis; conditions: CAMH broth, 20 μM Apo-Transferrin, 37° C., 18 hours
# Procedure: as §1, §2, §3, §4, §5, §6, §7
# KP (URMC-1) = type: cell-based, Klebsiella pneumoniae; conditions: CAMH broth, 20 μM Apo-Transferrin, 37° C., 18 hours
# Procedure: as §1, §2, §3, §4, §5, §6, §7
# KP (RR -1) = type: cell-based, Klebsiella pneumoniae; conditions: CAMH broth, 20 μM Apo-Transferrin, 37° C., 18 hours
# Procedure: as §1, §2, §3, §4, §5, §6, §7
# KP (URMC-2) = type: cell-based, Klebsiella pneumoniae; conditions: CAMH broth, 20 μM Apo-Transferrin, 37° C., 18 hours
# Procedure: as §1, §2, §3, §4, §5, §6, §7
# KP (GJ 5659 TEM-26) = type: cell-based, Klebsiella pneumoniae; conditions: CAMH broth, 20 μM Apo-Transferrin, 37° C., 18 hours
# Procedure: as §1, §2, §3, §4, §5, §6, §7
# KP (ATCC KPC-3) = type: cell-based, Klebsiella pneumoniae; conditions: CAMH broth, 20 μM Apo-Transferrin, 37° C., 18 hours
# Procedure: as §1, §2, §3, §4, §5, §6, §7
# KP (URMC-3) = type: cell-based, Klebsiella pneumoniae; conditions: CAMH broth, 20 μM Apo-Transferrin, 37° C., 18 hours
# Procedure: as §1, §2, §3, §4, §5, §6, §7
# EC (RR -2) = type: cell-based, Escherichia coli; conditions: CAMH broth, 20 μM Apo-Transferrin, 37° C., 18 hours
# Procedure: as §1, §2, §3, §4, §5, §6, §7
# EC(JMI OXA-48) = type: cell-based, Escherichia coli; conditions: Escherichia coli, CAMH broth, 20 μM Apo-Transferrin, 37° C., 18 hours, read-out: Minimum Inhibitory Concentrations, EC(JMI OXA-48)
# Procedure: as §1, §2, §3, §4, §5, §6, §7
# EC(KB1 CTX-M-15) = type: cell-based, Escherichia coli; conditions: Escherichia coli, CAMH broth, 20 μM Apo-Transferrin, 37° C., 18 hours, read-out: Minimum Inhibitory Concentrations, EC(KB1 CTX-M-15)
# Procedure: as §1, §2, §3, §4, §5, §6, §7
# EC (URMC-1) = type: cell-based, Escherichia coli; conditions: Escherichia coli, CAMH broth, 20 μM Apo-Transferrin, 37° C., 18 hours, read-out: Minimum Inhibitory Concentrations, EC (URMC-1)
# Procedure: as §1, §2, §3, §4, §5, §6, §7
# EC (URMC-2) = type: cell-based, Escherichia coli; conditions: Escherichia coli, CAMH broth, 20 μM Apo-Transferrin, 37° C., 18 hours, read-out: Minimum Inhibitory Concentrations, EC (URMC-2)
# Procedure: as §1, §2, §3, §4, §5, §6, §7
# EC (URMC-3) = type: cell-based, Escherichia coli; conditions: Escherichia coli, CAMH broth, 20 μM Apo-Transferrin, 37° C., 18 hours, read-out: Minimum Inhibitory Concentrations, EC (URMC-3)
# Procedure: as §1, §2, §3, §4, §5, §6, §7
# EC (RR -1) = type: cell-based, Escherichia coli; conditions: CAMH broth, 20 μM Apo-Transferrin, 37° C., 18 hours
# Procedure: as §1, §2, §3, §4, §5, §6, §7
# EC(ATCC NDM-1) = type: cell-based, Escherichia coli; conditions: Escherichia coli, CAMH broth, 20 μM Apo-Transferrin, 37° C., 18 hours, read-out: Minimum Inhibitory Concentrations, EC(ATCC NDM-1)
# Procedure: as §1, §2, §3, §4, §5, §6, §7
# EC(KB2 CTX-M-15) = type: cell-based, Escherichia coli; conditions: Escherichia coli, CAMH broth, 20 μM Apo-Transferrin, 37° C., 18 hours, read-out: Minimum Inhibitory Concentrations, EC(KB2 CTX-M-15)
# Procedure: as §1, §2, §3, §4, §5, §6, §7
# [2] = tested on: Pseudomonas aeruginosa PA (RR-2); type: cell-based; conditions: Pseudomonas aeruginosa; PA (RR-2); CAMH broth, 20 μM Apo-Transferrin, 37° C., 18 hours; read-out: Minimum Inhibitory Concentrations, PA (RR-2)
# How it was run: (§8)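 Growth inhibition was judged by well clarity after 18 h at 37 °C in transferrin-supplemented (20 μM apo form) CAMH. Standardized suspensions (0.08-0.1 OD600) were added within 30 min of preparation.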
# [3] = tested on: Pseudomonas aeruginosa PA-RR-(98023895); type: cell-based; conditions: Pseudomonas aeruginosa; PA-RR-(98023895); CAMH broth, 20 μM Apo-Transferrin, 37° C., 18 hours; read-out: Minimum Inhibitory Concentrations, PA-RR-(98023895)
# How it was run: as §8
# [4] = tested on: Pseudomonas aeruginosa PA (URMC-2); type: cell-based; conditions: Pseudomonas aeruginosa; PA (URMC-2); CAMH broth, 20 μM Apo-Transferrin, 37° C., 18 hours; read-out: Minimum Inhibitory Concentrations, PA (URMC-2)
# How it was run: as §8
# [5] = tested on: Pseudomonas aeruginosa PA-RR-(980151052); type: cell-based; conditions: Pseudomonas aeruginosa; PA-RR-(980151052); CAMH broth, 20 μM Apo-Transferrin, 37° C., 18 hours; read-out: Minimum Inhibitory Concentrations, PA-RR-(980151052)
# How it was run: as §8
# [6] = tested on: Pseudomonas aeruginosa PA-RR-(purple Fre D); type: cell-based; conditions: Pseudomonas aeruginosa, CAMH broth, 20 μM Apo-Transferrin, 37° C., 18 hours, read-out: Minimum Inhibitory Concentrations, PA-RR-(purple Fre D)
# How it was run: as §8
# [7] = tested on: Pseudomonas aeruginosa PA-RR-(G7305586); type: cell-based; conditions: Pseudomonas aeruginosa; PA-RR-(G7305586); CAMH broth, 20 μM Apo-Transferrin, 37° C., 18 hours; read-out: Minimum Inhibitory Concentrations, PA-RR-(G7305586)
# How it was run: as §8
smiles,measurement,setting,value
"CC(C)(O/N=C(\C(=O)N[C@@H]1C(=O)N2C(C(=O)O)=C(C=Cc3ccc(C[N+]4(C)Cc5cc(O)c(O)c(Cl)c5C4)cc3)CS[C@H]12)c1csc(N)n1)C(=O)O (mixture of isomers) [Compound 432, 2-(4-((E/Z)-2-((6R,7R)-7-((Z)-2-(2-aminothiazol-4-yl)-2-(((2-carboxypropan-2-yl)oxy)imino)acetamido)-2-carboxy-8-oxo-5-thia-1-azabicyclo[4.2.0]oct-2-en-3-yl)vinyl)benzyl)-4-chloro-5,6-dihydroxy-2-methylisoindolin-2-ium]","Mimimum Inhibitory Concentrations, EA (URMC -3)",EA (URMC -3),0.5 microgram/mL
same,"Mimimum Inhibitory Concentrations, CF (RR -1)",CF (RR -1),0.5 microgram/mL
same,"Mimimum Inhibitory Concentrations, ENC (ATCC NDM-1)",ENC (ATCC NDM-1),>64 microgram/mL
same,MIC,"A. baumannii; Acinetobacter baumannii, A. baumannii, CAMH broth, 20 μM Apo-Transferrin, 37° C., 18 hours, read-out: Minimum Inhibitory Concentrations, A. baumannii",1 µg/mL
same,"MICs for an Acinetobacter baumannii strain, in words",A. baumannii; review of Table 2,low microgram/mL MICs
same,MIC,[1],> 64 µg/mL
same,"Mimimum Inhibitory Concentrations, PM (RR -1)",PM (RR -1),≤0.06 microgram/mL
same,"Minimum Inhibitory Concentrations, KP (URMC-1)",KP (URMC-1),0.13 microgram/mL
same,"Mimimum Inhibitory Concentrations, KP (RR -1)",KP (RR -1),0.25 microgram/mL
same,"Minimum Inhibitory Concentrations, KP (URMC-2)",KP (URMC-2),≤0.06 microgram/mL
same,"Minimum Inhibitory Concentrations, KP (GJ 5659 TEM-26)",KP (GJ 5659 TEM-26),1 microgram/mL
same,"Minimum Inhibitory Concentrations, KP (ATCC KPC-3)",KP (ATCC KPC-3),>64 microgram/mL
same,"Minimum Inhibitory Concentrations, KP (URMC-3)",KP (URMC-3),≤0.06 microgram/mL
same,"Mimimum Inhibitory Concentrations, EC (RR -2)",EC (RR -2),≤0.06 microgram/mL
same,MIC,EC(JMI OXA-48),0.5 µg/mL
same,MIC,EC(KB1 CTX-M-15),1 µg/mL
same,MIC,EC (URMC-1),0.5 µg/mL
same,MIC,EC (URMC-2),≤ 0.06 µg/mL
same,MIC,EC (URMC-3),0.13 µg/mL
same,"Mimimum Inhibitory Concentrations, EC (RR -1)",EC (RR -1),≤0.06 microgram/mL
same,MIC,EC(ATCC NDM-1),> 64 µg/mL
same,MIC,EC(KB2 CTX-M-15),1 µg/mL
same,MIC,[2],0.13 µg/mL
same,MIC,[3],4 µg/mL
same,MIC,[4],0.5 µg/mL
same,MIC,[5],0.25 µg/mL
same,MIC,[6],1 µg/mL
same,MIC,[7],1 µg/mL

# From US20190100534A1, “Cephem Compounds with Latent Reactive Groups” (Gladius Pharmaceuticals, Inc., priority 2017, published 2019)
